From patent EP4700025A1, “AMIDE COMPOUND, PHARMACEUTICAL COMPOSITION COMPRISING SAME, AND USE THEREOF” (Suzhou Genhouse Bio Co., Ltd., priority 2023, dated 2024)
Where two headings read alike, the source gives them in different places.

Legend:
SDMA [1] = test: SDMA Inhibition Assay in HCT-116-MTAP^-/- cells; assay type: cell-based; settings: Homo sapiens, 96 hours
Protocol: (§1) The next day, the cells were treated with the compounds at different concentrations (with an initial concentration of 10 µM, 5-fold dilution, 9 concentration gradients). After 96 hours, the culture medium was pipetted out and the cells were washed 2 times with 100 µL of PBS. The cells were then fixed with 4% paraformaldehyde and incubated at room temperature for 20 min. The fixative solution was discarded, and the cells were washed with PBS. 150 µL of specialized blocking solution (containing 1% Triton-100) was added to each well for blocking at room temperature for 2 hours, and the plate was washed with PBS to remove excess blocking solution. […] The cells were incubated at 4 °C overnight. The next day, the cells were separately washed 2 times with 1× PBST. […] The cells were incubated at room temperature for 2 hours. The cells were washed 2 times with 1× PBST and 1 time with PBS. Fluorescence signals at 700 nm and 800 nm were separately detected using a Li-COR Odyssey two-color near-infrared laser imager. The inhibition rates were calculated, and the EC50 values were determined by fitting using the GraphPad Prism 7.0 software. Table 3. Inhibition of SDMA by test compounds

A549 = test: CCK8 proliferation inhibition, A549; assay type: cell-based; settings: Homo sapiens, 192 h, CCK8, 8 days after drug treatment
Protocol: (§2) The above normally growing cells were digested with a cell trypsinization solution, centrifuged, counted, and seeded into a 96-well plate at an appropriate cell density (2000 cells/well) at 100 µL/well. The next day after cell seeding, the compounds at different concentrations were added to the wells. Three replicate wells were set for each concentration point, and a corresponding DMSO negative control group was also set. CCK8 solution was added to each well 8 days after drug treatment. The plate was incubated at 37 °C for a period of time (OD450 of the vehicle group reached 1.0 or higher) before the absorbance at 450 nm was read using a microplate reader. The inhibition rates were calculated, and the EC50 values were determined by fitting using the GraphPad Prism 7.0 software. Table 2. EC50 values of compounds at cellular level

SDMA [2] = test: SDMA Inhibition Assay in A549 cells; assay type: cell-based; settings: Homo sapiens, A549, 96 hours
Protocol: as §1

HCT-116-MTAP^-/- = test: CCK8 proliferation inhibition, HCT-116-MTAP^-/-; assay type: cell-based; settings: Homo sapiens, 192 h; HCT-116-MTAP^-/- (MTAP-deficient); CCK8, 8 days after drug treatment
Protocol: as §2

SDMA [3] = test: SDMA Inhibition Assay in HCT-116 cells; assay type: cell-based; settings: Homo sapiens, HCT-116, 96 hours
Protocol: as §1

HCT-116 = test: CCK8 proliferation inhibition, HCT-116; assay type: cell-based; settings: Homo sapiens, 192 h, CCK8, 8 days after drug treatment
Protocol: as §2

[4] = Pharmacokinetic assay in mice; assay type: in vivo, Balb/c mice; settings: mouse; for MRT inf: read-out: MRT(0-∞)
Protocol: Eighteen male Balb/c mice aged 6 to 8 weeks were randomly divided into 2 groups (IV group and PO group). The corresponding compounds were administered to the animals in the IV group by tail intravenous injection at 2 mg/kg, and the corresponding compounds were administered to the animals in the PO group by oral gavage at 10 mg/kg or 100 mg/kg. The animals in the IV group were allowed free access to food and water, and the animals in the PO group were fasted overnight before administration and were fed 4 h after administration. Throughout the experiment, the animals were allowed free access to water. Plasma samples were separately collected at 0.083 h (only group IV), 0.25 h, 0.5 h, 1 h, 2 h, 4 h, 8 h, and 24 h after administration. About 100 µL of blood was collected from the orbit of the animal, placed into a 1.5 mL anticoagulation centrifuge tube, and centrifuged at 8000 rpm and 4 °C for 10 min. The upper plasma sample was transferred to an EP tube. The plasma samples were stored in a refrigerator at -80 °C until sample analysis. Pharmacokinetic parameters of the drug were calculated based on the drug concentration-time data, including the peak concentration Cmax, peak time Tmax, clearance rate CL, steady state apparent volume of distribution Vss, area under drug-time curve AUC, elimination half-life t1/2, bioavailability, and the like. Data below the 80% lower limit of quantification were excluded from the calculation of pharmacokinetic parameters.

[5] = male, Balb/c, plasma, 2 mg/kg, IV 2mpk
[6] = male, Balb/c, plasma, 10 mg/kg, PO 10mpk

EC50 (SDMA [1]) [nM] | EC50 (A549) [nM] | EC50 (SDMA [2]) [nM] | EC50 (HCT-116-MTAP^-/-) [nM] | EC50 (SDMA [3]) [nM] | EC50 (HCT-116) [µM] | Structure (SMILES) | other results
0.4 | 2.5 | 0.3 | 0.9 |  |  | C[C@@H]1COCC(c2ccc3c(c2)OC(F)(F)O3)N1C(=O)c1cc2c(cc1F)nc(N)c1cnn(C)c12 (stereo partly drawn) [Example I-11] | 
6.6 |  | 7.2 | 48.2 | 828 | > 10 | CN(Cc1ccc2cnn(C)c2c1)C(=O)c1cc2c(cc1F)nc(N)c1cnn(C)c12 [Example I-19] | 
3.5 | 10.8 | 2.1 | 3.4 |  |  | CC(C)N(Cc1ccc2c(c1)OC(F)(F)O2)C(=O)c1cc2c(cc1F)nc(N)c1cnn(C)c12 [Example I-13] | 
1.7 | 10.1 | 0.6 | 3.5 |  |  | COC[C@H](C)N(Cc1ccc2c(c1)OC(F)(F)O2)C(=O)c1cc2c(cc1F)nc(N)c1cnn(C)c12 [Example I-26] | 
2.1 |  | 2.6 | 4.7 | 200 | 2.36 | CCN(Cc1ccc2c(c1)OC(F)(F)O2)C(=O)c1ccc2nc(N)c3cnn(C)c3c2c1 [Example I-5] | AUC(0-inf) [4, 5]: 3.62 µM·h; AUC(0-t) [4, 5]: 3.32 µM·h; C0 [4, 5]: 1860 nM; MRT inf [4, 5]: 2.9 h; Vd ([4]; male, Balb/c, plasma, 2 mg/kg, IV 2mpk, read-out: Vz): 4.4 L/kg; AUC(0-inf) [4, 6]: 12.4 µM·h; AUC(0-t) [4, 6]: 12.4 µM·h; Cmax [4, 6]: 1.93 µM; Tmax [4, 6]: 1 h; MRT inf [4, 6]: 4.8 h; CLz ([4]; IV 2mpk): 1.3 L/h/kg; R_AUC(t/∞) ([4]; IV 2mpk): 91.7%; t1/2z ([4]; IV 2mpk): 2.4 h; R_AUC(t/∞) ([4]; PO 10mpk): 99.9%; t1/2z ([4]; PO 10mpk): 2.4 h; F ([4]; PO 10mpk vs IV 2mpk): 68.6%
3 |  | 1.9 | 22 | 292 | 2.61 | Cn1ncc2c(N)nc3cc(F)c(C(=O)N(CCN4CCOCC4)Cc4ccc5c(c4)OC(F)(F)O5)cc3c21 [Example I-21] | 
 |  |  |  |  |  | Nc1nc2cnc(C(=O)N3CCOC[C@@H]3c3ccc(C(F)(F)F)cc3)cc2c2c1COC2 [Control compound B, reference compound] | AUC(0-t) [4, 5]: 6.9 µM·h; AUC(0-t) [4, 6]: 26.5 µM·h; Cmax [4, 6]: 5.76 µM
7.4 |  | 7 | 27 | 381 | > 10 | Cn1ncc2c(N)nc3ccc(C(=O)N4CCOCC4c4ccc5c(c4)OC(F)(F)O5)cc3c21 (stereo not drawn) [Example I-4] | 
5.5 |  | 9.2 | 16.1 | 862 | > 10 | CN(Cc1ccc2nn(C)cc2c1)C(=O)c1cc2c(cc1F)nc(N)c1cnn(C)c12 [Example I-20] | 

Structure (SMILES) | EC50 (SDMA [1]) [nM] | EC50 (A549) [nM] | EC50 (SDMA [2]) [nM] | EC50 (HCT-116-MTAP^-/-) [nM] | EC50 (SDMA [3]) [nM] | EC50 (HCT-116) [µM] | other results
Cn1ncc2c(N)nc3cnc(C(=O)N4CCN(C5(C)CC5)CC4c4ccc5c(c4)OC(F)(F)O5)cc3c21 (racemic) [Example I-113] | 4.1 |  |  | 50.5 | 403 | > 10 | 
